Values quoted from earlier work, collected in paper PMC8198792, “Prediction of Anticancer Peptides with High Efficacy and Low Toxicity by Hybrid Model Based on 3D Structure of Peptides” (International Journal of Molecular Sciences, 2021).
Like-named read-outs stand apart in the source and are kept apart here.

Tested on: cancer cell lines
Set-up: method as in 6 sources, ref CancerPPD [45] and SATPdb ||| ref CancerPPD/SATPdb ||| ref CancerPPD, SATPdb, Swissprot (PDB) ||| ref CancerPPD/SATPdb/Swissprot(PDB) ||| ref CancerPPD / SATPdb ||| ...
Conditions: cited from earlier work
Source text: Supplement ijms-22-05630-s001.zip/ACPs(seguence).xlsx, sheet "D1" | column: Activity || Supplement ijms-22-05630-s001.zip/ACPs(seguence).xlsx, sheet "D2" | column: Activity || Supplement ijms-22-05630-s001.zip/ACPs(seguence).xlsx, sheet "D3" | column: Activity || (+ 2 further places)

[1] = ACPs dataset D2 (supplement ACPs(seguence).xlsx, sheet D2), dataset label 1/0 (ACP / non-ACP), entries identified by Swissprot(PDB ID), ref CancerPPD/SATPdb/Swissprot(PDB)
[2] = ACPs dataset D5, sheet "D5", label 1 = ACP, 0 = non-ACP, ref CancerPPD [45] and SATPdb
[3] = ACPs dataset D3 (sheet "D3"), label 1 = ACP, 0 = non-ACP, ref CancerPPD/SATPdb
[4] = ACPs dataset D4 (sheet "D4"), label 1 = ACP, 0 = non-ACP, ref CancerPPD / SATPdb
[5] = ACPs dataset D1, 1 = ACP (positive), 0 = non-ACP (negative), label taken from databases, ref CancerPPD [45] and SATPdb
[6] = ACPs dataset D4 (sheet "D4"), label 1 = ACP, experimentally validated ACPs, ref CancerPPD [45] and SATPdb
[7] = ACPs dataset D5 (sheet "D5"), label 1 = ACP (positive set), sequences with CancerPPD/SATPdb ID, ref CancerPPD, SATPdb
[8] = ACPs dataset sheet D2, 1 = ACP (CancerPPD/SATPdb ID), 0 = non-ACP (Swissprot/PDB ID), ref CancerPPD, SATPdb, Swissprot (PDB)
[9] = ACPs dataset D3 (supplement sheet "D3"), 1 = ACP, 0 = non-ACP, ref CancerPPD [45] and SATPdb
[10] = ACPs dataset D4 (sheet "D4"), label 1 = ACP (CancerPPD ID), 0 = non-ACP (non-anticancer AMP, SATPdb ID), ref CancerPPD [45] and SATPdb
[11] = ACPs dataset D5 (sheet "D5"), label 1 = ACP (positive set), 0 = non-ACP (negative set), ref CancerPPD [45] and SATPdb
[12] = ACPs dataset D1, label 1 = ACP, 0 = non-ACP (non-anticancer AMPs from SATPdb), ref CancerPPD/SATPdb

Measured: Activity

DIEDFYTSETCPYKNDSQLAWDTCSGGTGNCGTVCCGQCFSFPVSQSCAGMADSNDCPNA [2NSW NMR - A 1-60]
0: [1] | [2]

LLKWLKK [satpdb13213]
0: [3] | [4] | [2]

KGRGKRRRCKQRPSDCPRR [satpdb22253]
1: [5] | [6] | [7] | [8]

KWkSFLkTFkSLKkTVLHTLLkAISS [compound 3764]
1: [9] | [10] | [11]

GVFTLIKGATQLIGKTLGKELGKTGLEIMACKITKQC [satpdb12576]
0: [12] | [10]

YRGGYTGPIPRPPPIGRPPLRLVVCACYRLS [satpdb12661]
0: [12] | [10]

KMWSKILGHLIR [compound 3511]
1: [9] | [10] | [11]

GSIPCAESCVYIPCITGIAGCSCKNKVCYYN [satpdb12154]
0: [12] | [10]

FLGMIPGLIGGLISAFK [compound 3125]
1: [9] | [6] | [7]

CKGRGKRCREKQRPSDKPRR [satpdb11644]
1: [5] | [6] | [7] | [8]

SVLGTVKDLLIGAGKSAAQSVLTANSCKLSNSC [satpdb10581]
0: [5] | [10]

SSSGWLCTLTIECGTIICACR [satpdb10412]
0: [5] | [10]

INWKKIAEVGGKILSS [satpdb11077]
0: [5] | [10]

VAKKLAKLAKKLAKLAL [compound 1919]
1: [9] | [10] | [11]

DGVKLCDVPSGTWSGHCGSSSKCSQQCKDREHFAYGGACHYQFPSVKCFCKRQC [2N2Q NMR - A 1-54]
0: [1] | [2]

GIFLKVLGVGKKVLCGVSGLC [satpdb12520]
0: [12] | [10]

PLLQATLGGGS [compound 3726]
1: [5] | [6] | [7] | [8]

KWKSFLKTFKSLKkTVLHTLLKAISS [compound 3760]
1: [9] | [10] | [11]

INGSLDKRLLPDVET [satpdb28594]
1: [5] | [6] | [7] | [8]

TITLSTCAILSKPLGNNGYLCTVTKECMPSSCN [satpdb12698]
0: [12] | [10]

PDEDAINDALNKVCSTGRRQRSICKQLLKK [compound 3108]
1: [5] | [6] | [7] | [8]

GDVIDTDRDIDR [satpdb14246]
1: [5] | [6] | [7] | [8]

KILRGVAKKILRTFLRRISKDILTGKK [compound 3329]
1: [9] | [10] | [11]

AWASFFKKAAHVGKHVGKAALTHYL [satpdb11738]
0: [12] | [10]

GCPRILMRCKQDSDCLAGCVCGPNGFCGSP [1H9H X-ray 1.50 I 1-30]
0: [11] | [8]

VGSGGCMFGNGK [satpdb10083]
1: [5] | [6] | [7] | [8]

SPWSQCTASCGGGVQTR [satpdb21725]
1: [5] | [6] | [7] | [8]

PAARKAARWAWRMLKKGA [compound 1614]
1: [5] | [6] | [7] | [8]

GLASFLGKALKAGLKIGSHLLGGAPQQ [satpdb10480]
0: [5] | [10]

GSIPCGESCVFIPCISSVIGCACKSKVCYKN [compound 4374]
1: [5] | [6] | [7] | [8]

MEPECNLNCTD [satpdb10075]
1: [5] | [6] | [7] | [8]

GILLDKLKNFAKTAGKGVLQSLLNTASCKLSGQC [satpdb12360]
0: [12] | [10]

WYVKKCLNDVGICKKKCKPEEMHVKNGWAMCGKGRDCCVPAD [satpdb13381]
0: [12] | [4]

HGSTTLRDITV [satpdb28282]
1: [5] | [6] | [7] | [8]

ASSGWVCTLTIECGTVICACR [satpdb11450]
0: [12] | [10]

MLQNSAVLLLLVISASA [satpdb10067]
1: [5] | [6] | [7] | [8]

FLGALFHALSKLL [compound 3266]
1: [5] | [6] | [7] | [8]

KLCGETCFKFKCYTPGCSCSYPFCK [compound 4395]
1: [5] | [6] | [7] | [8]

GIIKKIIKKI [compound 2839]
1: [9] | [10] | [11]

GLFDIVKKVVGAIGSL [compound 4407]
1: [5] | [6] | [7] | [8]

FAKKFAKKFKKFAKKFAKFAFAF [compound 1910]
1: [9] | [6] | [7]

KLLKKLLKWLK [satpdb13967]
0: [3] | [4] | [2]

TLPFAYCNIHQVCHYAQRNDRSYWL [satpdb12859]
1: [5] | [6] | [7] | [8]

MVAYWRQAGLSYIRYSQICAKAVRDALKTEFKANAMKTSGSTIKIVKVKKE [2W6J X-ray 3.84,I,1-51]
0: [1] | [2]

PRAWEYWLRLME [compound 4582]
1: [5] | [6] | [7] | [8]

KWKLF [compound 1209]
1: [9] | [10] | [11]

GVPICGETCTLGTCYTAGCSCSWPVCTRN [compound 4421]
1: [5] | [6] | [7] | [8]

GIPCGESCVWIPCISAAIGCSCKNKVCYRN [satpdb12462]
0: [12] | [10]

FKLFKKIPKFLHLAKKF [compound 1124]
1: [9] | [6] | [7]

KWKLFKKIPKFLHLAKKF [compound 3290]
1: [5] | [6] | [7] | [8]

MFSPILSLEIILALATLQSVFAQPVICTTVGSAAEGS [satpdb11835]
1: [5] | [6] | [7] | [8]

EDGLHPRLCSC [satpdb11408]
0: [12] | [10]

FAKKLAKKLKKLAKKLAKLAKKL [compound 1914]
1: [9] | [6] | [7]

FFHHIFRGIVHVGKTIHRLVTG [compound 4437]
1: [5] | [6] | [7] | [8]

KWKLFKKIPKFLHLAKK [compound 1119]
1: [9] | [10] | [11]

GIACGESCVFLGCFIPGCSCKSKVCYFN [compound 4397]
1: [5] | [6] | [7] | [8]

FLPAIAGMAAKFLPKIFCAISKKC [satpdb12699]
0: [12] | [4]

VIFEWTLLQVLSESDQDQSLEVFLT [satpdb18497]
1: [5] | [6] | [7] | [8]

NGKQVCLDPEAPFLKKVIQKILDS [satpdb17154]
1: [5] | [6] | [7] | [8]
